Test results from patent US8906866B2, “Antibiotic compositions for the treatment of gram negative infections” (priority 2010, dated 2014).
*1 amine or outer side, *2 acyl side, *3 side chain or, on linkers, in order; H or OH if unused. Where a SMILES comes first, the peptide text is derived from it. Bridges are numbered along the chain shown (N, C = ends). [ ]: non-standard residue; d: D form. The star is where a group is joined. ξ: configuration not given here. Octanoyl(6-Me) = CCC(C)CCCCC(=O)*; Thr(3ξ) = CC(O)[C@H](N)C(=O)O; NH(2-ClPh) = Clc1ccccc1N*; X1 = CC[C@H](C)CCCCC(=O)*; dDab = NCC[C@@H](N)C(=O)O; Dab = NCC[C@H](N)C(=O)O; CO = O=C([*:1])[*:2]; ξDab = NCCC(N)C(=O)O

Experiments:
E. coli [1] = test: MIC50 and MIC90, CLSI broth microdilution, panel of Gram negative strains; assay type: cell-based, Escherichia coli; parameters: key: A: a measured MIC value equal to that of polymyxin B; a measured MIC value less than the corresponding MIC value measured for polymyxin B; a measured MIC value greater than the corresponding MIC value measured for polymyxin B; details: relative to polymyxin B; some strains multi-drug resistant
Procedure: (§1) MIC testing can be performed according to Clinical and Laboratory Standards Institute (CLSI) M7-A7 (2006) broth microdilution methods. Unless otherwise indicated, MIC values are provided in units of micrograms per milliliter.
(§2) One day prior to testing, individual colonies were isolated by streaking onto rich, non-selective Tryptic Soy agar with 5% lysed sheeps blood (TSAB) with incubation at 35-37° C. for 18-24 hours.
(§3) Cultures were prepared by touching 3-5 colonies into 3 mL of cation-adjusted Mueller Hinton Broth (caMHB) in a 14-mL tube (caMHB was prepared and sterilized according to manufacturer's specifications).
(§4) OD600 of growing cultures was measured and adjusted to approximately 10^5 colony forming units per mL (CFU/mL) in caMHB for MIC inoculation (approximately OD600 0.001).
(§5) Diluted cultures were used to inoculate 50 μL per well in broth microdilution assays (final volume 100 μl per well; compounds were prepared in two-fold dilutions).
(§6) Plates were incubated 16-20 hours at 37° C., with shaking at 200 rpm.
(§7) OD600 was determined for all wells. Growth was defined as OD600>0.1. MICs were defined as the lowest concentration producing no visible turbidity (OD600<0.1).

A. baumannii = test: MIC50/90 against small panels (n = 35); assay type: cell-based, Acinetobacter baumannii; parameters: key: A: a MIC value measurement that is the same as that observed for polymyxin B; a MIC value measured that is lower than the comparable value observed for polymxin B; a MIC value measured that is higher than the comparable value observed for polymyxin B; details: small panel n = 35, relative to polymyxin B
Procedure: (§8) Antibacterial potency can be assessed by broth microdilution according to CLSI guidelines, plates can be incubated at 37° C., and aeration (rotation at 200 rpm) can be employed. In some assays, surfactant (Survanta, Abbott Laboratories) can be added to give a final concentration of 1, 10 and 40% in caMHB. Native polymyxin A, polymyxin B and the comparator compound of Formula II (polymyxin B decapeptide with an o-chlorophenyl urea tail) were included for comparison.

P. aeruginosa 44 [2] = test: Neutropenic mouse lung infection model; assay type: in vivo; details: for Lungs cleared within one log10 of limit of detection: 8 through 20 mg/kg dose levels
Procedure: Compound of Formula (Ia) was tested in a murine thigh model. For the thigh model, female CD-1 mice were rendered neutropenic by IP injection on days −4 and −1 with 150 and 100 mg/kg cyclophosphamide, respectively. On day 0 mice were infected with 1×10^7 colony-forming units (cfu) of A. baumannii 1570 in one thigh muscle, and then administered compound SC in a dose ranging from 2 to 12 mg/kg at 1 and 6 hours post-infection.
The mouse lung model was run in the same manner as the thigh infection model, except that mice were infected IN with 1×10^7 cfu of P. aeruginosa 44 on day 0. Doses administered in the lung study ranged from 8 to 20 mg/kg. The ED−3log10 was based on cfu determination from the lung tissue 24 hours post-infection.

P. aeru = test: MIC50 and MIC90, CLSI broth microdilution, panel of Gram negative strains; assay type: cell-based, Pseudomonas aeruginosa; parameters: key: A: a measured MIC value equal to that of polymyxin B; a measured MIC value less than the corresponding MIC value measured for polymyxin B; a measured MIC value greater than the corresponding MIC value measured for polymyxin B; details: relative to polymyxin B, some strains multi-drug resistant
Procedure: as §1, §2, §3, §4, §5, §6, §7

P. aeruginosa #44 [3] = test: MICs for P. aeruginosa #44 in the presence of surfactant; assay type: cell-based, Pseudomonas aeruginosa; parameters: key: A: a MIC value measurement that is the same as that observed for polymyxin B; a MIC value measured that is lower than the comparable value observed for polymxin B; a MIC value measured that is higher than the comparable value observed for polymyxin B
Procedure: as §8

A. baum = test: MIC50 and MIC90, CLSI broth microdilution, panel of Gram negative strains; assay type: cell-based, Acinetobacter baumannii; parameters: key: A: a measured MIC value equal to that of polymyxin B; a measured MIC value less than the corresponding MIC value measured for polymyxin B; a measured MIC value greater than the corresponding MIC value measured for polymyxin B; details: relative to polymyxin B; some strains multi-drug resistant
Procedure: as §1, §2, §3, §4, §5, §6, §7

[4] = Acute toxicity testing in rats; assay type: in vivo, Sprague-Dawley rat; details: 1 mg/kg i.v., female Sprague-Dawley rat
Procedure: One female Sprague-Dawley rat was administered a 1 mg/kg dose of the test Compound 5. Clinical observations were taken immediately following the administration of compound and at 0.5, 1, 2 and 4 hours post-dose.

K. pneu = test: MIC50 and MIC90, CLSI broth microdilution, panel of Gram negative strains; assay type: cell-based, Klebsiella pneumoniae; parameters: key: A: a measured MIC value equal to that of polymyxin B; a measured MIC value less than the corresponding MIC value measured for polymyxin B; a measured MIC value greater than the corresponding MIC value measured for polymyxin B; details: relative to polymyxin B; some strains multi-drug resistant
Procedure: as §1, §2, §3, §4, §5, §6, §7

K. pneumoniae 933 = test: MIC against the primary screening panel (broth microdilution); assay type: cell-based, Klebsiella pneumoniae; parameters: key: A: a MIC value measurement that is the same as that observed for polymyxin B; a MIC value measured that is lower than the comparable value observed for polymxin B; a MIC value measured that is higher than the comparable value observed for polymyxin B; details: relative to polymyxin B
Procedure: as §8

E. coli 1527 = test: as above; assay type: cell-based, Escherichia coli; parameters: key: A: a MIC value measurement that is the same as that observed for polymyxin B; a MIC value measured that is lower than the comparable value observed for polymxin B; a MIC value measured that is higher than the comparable value observed for polymyxin B; details: relative to polymyxin B
Procedure: as §8

P. aeruginosa 44 [5] = test: as above; assay type: cell-based, Pseudomonas aeruginosa; parameters: key: A: a MIC value measurement that is the same as that observed for polymyxin B; a MIC value measured that is lower than the comparable value observed for polymxin B; a MIC value measured that is higher than the comparable value observed for polymyxin B; details: relative to polymyxin B
Procedure: as §8

P. aeruginosa = test: MIC50/90 against small panels (n = 35); assay type: cell-based, Pseudomonas aeruginosa; parameters: key: A: a MIC value measurement that is the same as that observed for polymyxin B; a MIC value measured that is lower than the comparable value observed for polymxin B; a MIC value measured that is higher than the comparable value observed for polymyxin B; details: small panel n = 35, relative to polymyxin B
Procedure: as §8

A. baumannii 1570 = test: MIC against the primary screening panel (broth microdilution); assay type: cell-based, Acinetobacter baumannii; parameters: key: A: a MIC value measurement that is the same as that observed for polymyxin B; a MIC value measured that is lower than the comparable value observed for polymxin B; a MIC value measured that is higher than the comparable value observed for polymyxin B; details: relative to polymyxin B
Procedure: as §8

K. pneumoniae = test: MIC50/90 against small panels (n = 35); assay type: cell-based, Klebsiella pneumoniae; parameters: key: A: a MIC value measurement that is the same as that observed for polymyxin B; a MIC value measured that is lower than the comparable value observed for polymxin B; a MIC value measured that is higher than the comparable value observed for polymyxin B; details: small panel n = 35, relative to polymyxin B
Procedure: as §8

E. coli [6] = test: MIC50/90 against small panels (n = 35); assay type: cell-based, Escherichia coli; parameters: key: A: a MIC value measurement that is the same as that observed for polymyxin B; a MIC value measured that is lower than the comparable value observed for polymxin B; a MIC value measured that is higher than the comparable value observed for polymyxin B; details: small panel n = 35, relative to polymyxin B
Procedure: as §8

P. aeruginosa #44 [7] = test: MIC against P. aeruginosa #44 in polystyrene plate; assay type: cell-based, Pseudomonas aeruginosa; details: range of repeated tests
Procedure: P. aeruginosa #44 were grown in cation adjusted Mueller Hinton Broth (caMHB) (catalog#B12322; Fisher Scientific, Pittsburgh, Pa.) at 37° C. MIC testing was performed according to Clinical and Laboratory Standards Institute [CLSI, formerly National Committee for Clinical Laboratory Standards (NCCLS), Wayne, Pa.] guidelines for broth microdilution. […]

[8] = neutropenic mouse lung, P. aeruginosa 44, SC, BID×1 d, cfu 24 hours post-infection

Compound | E. coli MIC50 (E. coli [1]) | E. coli MIC90 (E. coli [1]) | A. baumannii MIC50 (A. baumannii) | A. baumannii MIC90 (A. baumannii) | Lungs cleared within one log10 of limit of detection (P. aeruginosa 44 [2]) | ED−3log10 (P. aeruginosa 44 [2]; [8]) [mg/kg] | A. baum MIC 50 (A. baum) | A. baum MIC 90 (A. baum) | K. pneu MIC 50 (K. pneu) | K. pneu MIC 90 (K. pneu) | MIC K. pneumoniae 933 (K. pneumoniae 933) | MIC E. coli 1527 (E. coli 1527) | MIC P. aeruginosa 44 (P. aeruginosa 44 [5]) | P. aeruginosa MIC50 (P. aeruginosa) | P. aeruginosa MIC90 (P. aeruginosa) | MIC A. baumannii 1570 (A. baumannii 1570) | K. pneumoniae MIC50 (K. pneumoniae) | K. pneumoniae MIC90 (K. pneumoniae) | E. coli MIC50 (E. coli [6]) | E. coli MIC90 (E. coli [6]) | also measured
CC[C@H](C)CCCCC(=O)N[C@@H](CCN)C(=O)N[C@H](C(=O)N[C@H](CCN)C(=O)N[C@H]1CCNC(=O)[C@H]([C@@H](C)O)NC(=O)[C@H](CCN)NC(=O)[C@H](CCN)NC(=O)[C@H]([C@@H](C)O)NC(=O)[C@@H](CC(C)C)NC(=O)[C@H](CCN)NC1=O)[C@@H](C)O [Native Polymyxin A, Polymyxin A] (X1-[Dab]T[dDab][Dab][Dab][dL]T[Dab][Dab]T; lactam 4-C) | B | A | A | A | not observed | 16.22 | A | A | C | C | A | B | C | A | C | C | C | C | B | A | P. aeru MIC 50 (P. aeru): A; P. aeru MIC 90 (P. aeru): C; MIC P. aeruginosa #44, 0% surfactant (P. aeruginosa #44 [3]; relative to polymyxin B): C; MIC P. aeruginosa #44, 10% surfactant (P. aeruginosa #44 [3]; relative to polymyxin B): B; MIC P. aeruginosa #44, 40% surfactant (P. aeruginosa #44 [3]; relative to polymyxin B): B; Acute (anaphylactoid) observations [4]: no clinical signs were observed
CCC(C)CCCCC(=O)N[C@@H](CCN)C(=O)N[C@H](C(=O)N[C@@H](CCN)C(=O)NC1CCNC(=O)[C@H](C(C)O)NC(=O)[C@H](CCN)NC(=O)C(CCN)NC(=O)[C@H](CC(C)C)NC(=O)[C@@H](Cc2ccccc2)NC(=O)[C@H](CCN)NC1=O)C(C)O (stereo partly shown) [Polymyxin B] ({Octanoyl(6-Me)}-[Dab][Thr(3ξ)][Dab][ξDab][Dab][dF]L[ξDab][Dab][Thr(3ξ)]; lactam 4-C) | A | A | A | A | not observed | > 20 | A | A | A | A | A | A | A | A | A | A | A | A | A | A | ED−3log10 (P. aeruginosa 44 [2]; neutropenic mouse lung, P. aeruginosa 44, SC, BID×1 d, cfu 24 hours post-infection, listed as PMB): 20.6 mg/kg; MIC against P. aeruginosa #44 In polystyrene plate (P. aeruginosa #44 [7]): 1-2 micrograms/ml; P. aeru MIC 50 (P. aeru): A; P. aeru MIC 90 (P. aeru): A; MIC P. aeruginosa #44, 0% surfactant (P. aeruginosa #44 [3]): 0.06 micrograms/ml; MIC P. aeruginosa #44, 10% surfactant (P. aeruginosa #44 [3]): 8 micrograms/ml; MIC P. aeruginosa #44, 40% surfactant (P. aeruginosa #44 [3]): >32 micrograms/ml
Colistin | – | – | – | – | – | – | – | – | – | – | – | – | – | – | – | – | – | – | – | – | MIC against P. aeruginosa #44 In polystyrene plate (P. aeruginosa #44 [7]): 2-4 micrograms/ml
CC(C)C[C@@H]1NC(=O)[C@@H](Cc2ccccc2)NC(=O)[C@H](CCN)NC(=O)C(NC(=O)[C@H](CCN)NC(=O)[C@@H](NC(=O)[C@H](CCN)NC(=O)Nc2ccccc2Cl)C(C)O)CCNC(=O)[C@H](C(C)O)NC(=O)[C@H](CCN)NC(=O)C(CCN)NC1=O (stereo partly shown) [Formula (II) comparator] ({NH(2-ClPh)-CO}-[Dab][Thr(3ξ)][Dab][ξDab][Dab][dF]L[ξDab][Dab][Thr(3ξ)]; lactam 4-C) | C | C | C | C | not seen | – | C | C | C | C | C | C | C | B | A | C | C | C | C | C | ED−3log10 (P. aeruginosa 44 [2]; historical data): approximately 12 mg/kg; P. aeru MIC 50 (P. aeru; listed as 2): B and A; P. aeru MIC 90 (P. aeru; listed as 2): A and C; MIC P. aeruginosa #44, 0% surfactant (P. aeruginosa #44 [3]; relative to polymyxin B): C; MIC P. aeruginosa #44, 10% surfactant (P. aeruginosa #44 [3]; relative to polymyxin B): B; MIC P. aeruginosa #44, 40% surfactant (P. aeruginosa #44 [3]; relative to polymyxin B): A
